The target of this assay is T1, porcine erythrocyte μ-calpain (Sus scrofa, UniProt P35750).
T1 sequence (P35750 1-714): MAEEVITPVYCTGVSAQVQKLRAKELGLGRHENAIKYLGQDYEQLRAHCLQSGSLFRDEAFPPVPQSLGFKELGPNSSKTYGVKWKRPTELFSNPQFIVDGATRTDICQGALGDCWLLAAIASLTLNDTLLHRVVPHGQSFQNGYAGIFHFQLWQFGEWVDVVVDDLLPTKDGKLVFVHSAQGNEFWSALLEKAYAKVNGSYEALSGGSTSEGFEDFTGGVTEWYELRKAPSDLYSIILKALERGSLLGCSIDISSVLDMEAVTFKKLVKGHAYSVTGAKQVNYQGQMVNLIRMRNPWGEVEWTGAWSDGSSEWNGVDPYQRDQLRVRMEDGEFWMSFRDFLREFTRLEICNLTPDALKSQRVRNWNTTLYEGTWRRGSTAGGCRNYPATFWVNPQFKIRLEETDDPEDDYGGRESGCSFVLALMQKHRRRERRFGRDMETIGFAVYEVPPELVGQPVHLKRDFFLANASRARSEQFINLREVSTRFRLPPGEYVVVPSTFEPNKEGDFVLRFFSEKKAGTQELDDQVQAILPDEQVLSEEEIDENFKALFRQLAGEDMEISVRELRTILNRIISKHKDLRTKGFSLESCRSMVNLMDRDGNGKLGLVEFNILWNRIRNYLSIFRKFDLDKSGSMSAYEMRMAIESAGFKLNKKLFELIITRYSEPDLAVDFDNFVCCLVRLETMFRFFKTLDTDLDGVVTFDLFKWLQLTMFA
T1 sequence (P04574 1-266 partner): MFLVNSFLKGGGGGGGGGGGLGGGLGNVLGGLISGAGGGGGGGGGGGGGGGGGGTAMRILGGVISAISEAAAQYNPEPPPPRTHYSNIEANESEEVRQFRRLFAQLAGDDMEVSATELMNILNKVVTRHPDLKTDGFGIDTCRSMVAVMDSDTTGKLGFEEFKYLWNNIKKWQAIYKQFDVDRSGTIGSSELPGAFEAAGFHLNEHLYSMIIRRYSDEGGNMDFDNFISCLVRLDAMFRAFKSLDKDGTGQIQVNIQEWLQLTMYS
The assay is described as follows: μ-Calpain inhibition assay. The assay is classed as biochemical.

The values below come from publication PMC2643072 (Journal of medicinal chemistry, 2008).

On to `CC(C)C[C@H](NC(=O)CC(c1ccccc1)c1ccccc1)C(=O)NC(Cc1ccccc1)C(=O)C(=O)O` (stereo partly drawn) [Compound 2d, N-(3,3-Diphenylpropionyl)-L-leucyl-2-oxo-3(R,S)-amino-4-phenylbutanoic acid], for which the “μ-calpain inhibitory potency relative to 2c” value (diphenylpropionyl (2d) vs diphenylacetyl (2c) N-terminal cap) is listed as “about twice as potent”.

For `CC(C)C[C@H](NC(=O)CC1c2ccccc2-c2ccccc21)C(=O)NC(Cc1ccccc1)C(=O)C(=O)O` (stereo partly drawn) [Compound 2e, N-(9-Fluoreneacetyl)-L-leucyl-2-oxo-3(R,S)-amino-4-phenylbutanoic acid], for the setting “planar fluorene cap vs cyclohexyl (2a) and adamantyl (2b) caps”, the “fold more potent than 2a and 2b (μ-calpain inhibition)” value is “over 5 fold”.
